“And” between values parts separate entries of the source, which are not always exact repeats. Equal entries are not always repeated.
Tested on: 276233-004-R-J1-PDC KRAS spheroids with HUVEC/MSC, viability
Assay: Anticancer human tumor 276233-004-R-J1-PDC patient-derived colon adenocarcinoma cell line growth inhibition [KRAS2]
Conditions: for viability, T/C: stronger effect = lower value
Summary of the method: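 Combination screen of spheroid viability in tumor-cell co-cultures with endothelial (HUVEC) and mesenchymal stem cell stroma. Each agent was tested in half-log dilutions, topping at clinical Cmax or at 10 microM without a known Cmax.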

[1] = curve of first compound, second compound 0.1 µM
[2] = curve of first compound, second compound 0.316 µM
[3] = curve of first compound, second compound 1 µM
[4] = curve of first compound, second compound 3.16 µM
[5] = curve of first compound, second compound 10 µM
[6] = second compound 0.1 µM, first compound 0.0316 µM
[7] = second compound 0.1 µM, first compound 0.1 µM
[8] = second compound 0.1 µM, first compound 0.316 µM
[9] = second compound 0.1 µM, first compound 1 µM
[10] = second compound 0.1 µM, first compound 3.16 µM
[11] = second compound 0.316 µM, first compound 0.0316 µM
[12] = second compound 0.316 µM, first compound 0.1 µM
[13] = second compound 0.316 µM, first compound 0.316 µM
[14] = second compound 0.316 µM, first compound 1 µM
[15] = second compound 0.316 µM, first compound 3.16 µM
[16] = second compound 1 µM, first compound 0.0316 µM
[17] = second compound 1 µM, first compound 0.1 µM
[18] = second compound 1 µM, first compound 0.316 µM
[19] = second compound 1 µM, first compound 1 µM
[20] = second compound 1 µM, first compound 3.16 µM
[21] = second compound 3.16 µM, first compound 0.0316 µM
[22] = second compound 3.16 µM, first compound 0.1 µM
[23] = second compound 3.16 µM, first compound 0.316 µM
[24] = second compound 3.16 µM, first compound 1 µM
[25] = second compound 3.16 µM, first compound 3.16 µM
[26] = second compound 10 µM, first compound 0.0316 µM
[27] = second compound 10 µM, first compound 0.1 µM
[28] = second compound 10 µM, first compound 0.316 µM
[29] = second compound 10 µM, first compound 1 µM
[30] = second compound 10 µM, first compound 3.16 µM
[31] = second compound 0.1 µM, first compound 10 µM
[32] = second compound 0.316 µM, first compound 10 µM
[33] = second compound 1 µM, first compound 10 µM
[34] = second compound 3.16 µM, first compound 10 µM
[35] = second compound 10 µM, first compound 10 µM
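Note: cells exposed to agents for seven days before viability read.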
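Throughout, for viability, T/C: 100% = DMSO vehicle control wells and lower values mean fewer viable cells.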

Structure (SMILES) | IC50 [1] | IC50 [2] | IC50 [3] | IC50 [4] | IC50 [5] | viability, T/C [6] | viability, T/C [7] | viability, T/C [8] | viability, T/C [9] | viability, T/C [10] | viability, T/C [11] | viability, T/C [12] | viability, T/C [13] | viability, T/C [14] | viability, T/C [15] | viability, T/C [16] | viability, T/C [17] | viability, T/C [18] | viability, T/C [19] | viability, T/C [20] | also measured
CC(=O)OC12COC1CC(O)C1(C)C(=O)C(O)C3=C(C)C(OC(=O)C(O)C(NC(=O)OC(C)(C)C)c4ccccc4)CC(O)(C(OC(=O)c4ccccc4)C21)C3(C)C (centres undefined) + CC1OCC2(CCN(c3cnc(Sc4ccnc(N)c4Cl)c(N)n3)CC2)C1N | > 3.16 µM | > 3.16 µM | > 3.16 µM | < 0.01 µM | < 0.01 µM | 69.1% | 60% | 73.8% | 66.5% | 76.2% | 72.9% | 65.5% | 55.9% | 66.9% | 65.4% | 75.5% | 84.9% | 84.5% | 84.3% | 93.8% | viability, T/C (second compound 0.1 µM, first compound 0.01 µM): 61.6%; viability, T/C (second compound 0.316 µM, first compound 0.01 µM): 70.4%; viability, T/C (second compound 1 µM, first compound 0.01 µM): 91.1%; viability, T/C (second compound 3.16 µM, first compound 0.01 µM): 47.4%; viability, T/C [21]: 39.1%; viability, T/C [22]: 50.6%; viability, T/C [23]: 40.5%; viability, T/C [24]: 44.1%; viability, T/C [25]: 40.9%; viability, T/C (second compound 10 µM, first compound 0.01 µM): 41.6%; viability, T/C [26]: 44.7%; viability, T/C [27]: 42%; viability, T/C [28]: 34.7%; viability, T/C [29]: 42.6%; viability, T/C [30]: 35%
COc1cc(Nc2ncc3c(n2)-c2ccc(Cl)cc2C(c2c(F)cccc2OC)=NC3)ccc1C(=O)O + CNCc1ccccc1-c1csc(C(C)Nc2nc(C)nc3cc(OC)c(OC)cc23)c1 | > 10 µM | > 10 µM | > 10 µM | < 0.0316 µM | < 0.0316 µM | 103% | 110% | 75.7% | 104% | 95.7% | 107% | 93% | 99.1% | 97.7% | 91.9% | 80.4% | 86.1% | 111% | 85% | 72.1% | viability, T/C [31]: 84.2%; viability, T/C [32]: 94.6%; viability, T/C [33]: 66.3%; viability, T/C [21]: 5.21%; viability, T/C [22]: 1.97%; viability, T/C [23]: 1.67%; viability, T/C [24]: 4.48%; viability, T/C [25]: 4.94%; viability, T/C [34]: 0.76%; viability, T/C [26]: 2.44%; viability, T/C [27]: 3.58%; viability, T/C [28]: 0.22%; viability, T/C [29]: 0.22%; viability, T/C [30]: 0.73%; viability, T/C [35]: 0.99%
C=CC(=O)N1CCN(c2nc(OCC3CCCN3C)nc3c2CCN(c2cccc4cccc(C)c24)C3)CC1CC#N (centres undefined) |  |  |  |  |  |  |  |  |  |  |  |  |  |  |  |  |  |  |  |  | IC50 (compound alone, run of 07/12/2021): > 3.16 µM and 2.82 µM; IC50 (compound alone, run of 07/19/2021): > 3.16 µM and 2.57 µM and 2.49 µM; IC50 (compound alone, run of 07/26/2021): > 3.16 µM
CC1OCC2(CCN(c3cnc(Sc4ccnc(N)c4Cl)c(N)n3)CC2)C1N (centres undefined) + C=CC(=O)N1CCN(c2nc(=O)n(-c3c(C)ccnc3C(C)C)c3nc(-c4c(O)cccc4F)c(F)cc23)C(C)C1 | > 10 µM | > 10 µM | > 10 µM | > 10 µM | > 10 µM | 93.7% | 85.8% | 82.3% | 83.7% | 71.6% | 88.7% | 103% | 81.9% | 85.9% | 67.2% | 94.7% | 97.7% | 76.2% | 87.4% | 74.2% | viability, T/C [31]: 69.9%; viability, T/C [32]: 68%; viability, T/C [33]: 55.8%; viability, T/C [21]: 98.6%; viability, T/C [22]: 96.4%; viability, T/C [23]: 88.3%; viability, T/C [24]: 81.8%; viability, T/C [25]: 63.1%; viability, T/C [34]: 58%; viability, T/C [26]: 78.4%; viability, T/C [27]: 82.4%; viability, T/C [28]: 63.9%; viability, T/C [29]: 58.3%; viability, T/C [30]: 68.4%; viability, T/C [35]: 71.8%
CCNC(=O)CC1N=C(c2ccc(Cl)cc2)c2cc(OC)ccc2-n2c(C)nnc21 (centres undefined) |  |  |  |  |  |  |  |  |  |  |  |  |  |  |  |  |  |  |  |  | viability, T/C (compound 0.0316 µM): 95.8% [middle of 5 runs]; viability, T/C (compound 0.1 µM): 88.7% [middle of 5 runs]; viability, T/C (compound 0.316 µM): 68.2% [middle of 5 runs]; viability, T/C (compound 1 µM): 70.9% [middle of 5 runs]; viability, T/C (compound 3.16 µM): 71.3% [middle of 5 runs]; IC50 (curve of compound): > 10 µM and 5.56 µM
Cn1nccc1Nc1nccc(-c2cc3c(s2)C(C)(C)N(CCN2CCOCC2)C3=O)n1 + COc1cc2nc(C)nc(NC(C)c3cc(N)cc(C(F)(F)F)c3)c2cc1OC1CCOC1 | 1.72 µM | 2.01 µM | 1.85 µM | 2.72 µM | < 0.0316 µM | 87.1% | 97.3% | 76.2% | 59.4% | 40.8% | 89.2% | 91.4% | 79.3% | 60% | 42.9% | 99.7% | 96% | 75.5% | 60.5% | 35.9% | viability, T/C [31]: 33.8%; viability, T/C [32]: 41%; viability, T/C [33]: 48.4%; viability, T/C [21]: 107%; viability, T/C [22]: 74%; viability, T/C [23]: 77.9%; viability, T/C [24]: 56.1%; viability, T/C [25]: 42.4%; viability, T/C [34]: 47.2%; viability, T/C [26]: 39.3%; viability, T/C [27]: 41.3%; viability, T/C [28]: 34.7%; viability, T/C [29]: 27.6%; viability, T/C [30]: 15.2%; viability, T/C [35]: 4.25%
